Assay results as given in PubChem BioAssay (NCI).
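All cell lines were grown in 96-well plates and treated with compound for 48 hours. GI50 marks 50% less growth. TGI: total growth inhibition.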

Tests used:
Assay in all cases: DTP human tumour cell line panel, 48 h
786-0 renal = test system: 786-0 renal
A498 renal = test system: A498 renal
A549 NSCLC = test system: A549 NSCLC
ACHN renal = test system: ACHN renal
BT-549 breast = test system: BT-549 breast
CAKI-1 renal = test system: CAKI-1 renal
CCRF-CEM leukemia = test system: CCRF-CEM leukemia
COLO 205 colon = test system: COLO 205 colon
DU-145 prostate = test system: DU-145 prostate
EKVX NSCLC = test system: EKVX NSCLC
HCC-2998 colon = test system: HCC-2998 colon
HCT-116 colon = test system: HCT-116 colon
HCT-15 colon = test system: HCT-15 colon
HL-60(TB) leukemia = test system: HL-60(TB) leukemia
HOP-62 NSCLC = test system: HOP-62 NSCLC
HOP-92 NSCLC = test system: HOP-92 NSCLC
HS 578T breast = test system: HS 578T breast
HT29 colon = test system: HT29 colon
IGROV1 ovarian = test system: IGROV1 ovarian
K-562 leukemia = test system: K-562 leukemia
KM12 colon = test system: KM12 colon
LOX IMVI melanoma = test system: LOX IMVI melanoma
M14 melanoma = test system: M14 melanoma
MALME-3M melanoma = test system: MALME-3M melanoma
MCF7 breast = test system: MCF7 breast
MDA-MB-231 breast = test system: MDA-MB-231 breast
MDA-MB-435 = test system: MDA-MB-435
MOLT-4 leukemia = test system: MOLT-4 leukemia
NCI-H226 lung = test system: NCI-H226 lung
NCI-H460 lung = test system: NCI-H460 lung
NCI-H522 lung = test system: NCI-H522 lung
NCI/ADR-RES ovarian = test system: NCI/ADR-RES ovarian
OVCAR-3 ovarian = test system: OVCAR-3 ovarian
OVCAR-4 ovarian = test system: OVCAR-4 ovarian
OVCAR-5 ovarian = test system: OVCAR-5 ovarian
OVCAR-8 ovarian = test system: OVCAR-8 ovarian
PC-3 prostate = test system: PC-3 prostate
RPMI-8226 leukemia = test system: RPMI-8226 leukemia
RXF 393 renal = test system: RXF 393 renal
SF-268 CNS = test system: SF-268 CNS
SF-295 CNS = test system: SF-295 CNS
SF-539 CNS = test system: SF-539 CNS
SK-MEL-2 melanoma = test system: SK-MEL-2 melanoma
SK-MEL-28 melanoma = test system: SK-MEL-28 melanoma
SK-MEL-5 melanoma = test system: SK-MEL-5 melanoma
SK-OV-3 ovarian = test system: SK-OV-3 ovarian
SN12C renal = test system: SN12C renal
SNB-19 CNS = test system: SNB-19 CNS
SNB-75 CNS = test system: SNB-75 CNS
SR leukemia = test system: SR leukemia
SW-620 colon = test system: SW-620 colon
T-47D breast = test system: T-47D breast
TK-10 renal = test system: TK-10 renal
U251 CNS = test system: U251 CNS
UACC-257 melanoma = test system: UACC-257 melanoma
UACC-62 melanoma = test system: UACC-62 melanoma
UO-31 renal = test system: UO-31 renal
NCI-H23 lung = test system: NCI-H23 lung

## COCCNc1ccc2ncc(C#Cc3cncc(C(=O)Nc4ccc(CN5CCN(C)CC5)c(C(F)(F)F)c4)c3)n2n1
786-0 renal
  GI50: 0.236 µM
  TGI: 0.939 µM
A498 renal
  GI50: 0.221 µM
  TGI: 0.474 µM
A549 NSCLC
  GI50: 0.208 µM
  TGI: 1.12 µM
ACHN renal
  GI50: 0.157 µM
  TGI: 0.87 µM
BT-549 breast
  GI50: 0.434 µM
  TGI: 1.21 µM
CAKI-1 renal
  GI50: 0.113 µM
  TGI: 0.327 µM
CCRF-CEM leukemia
  GI50: 0.0249 µM
  TGI: 6.68 µM
COLO 205 colon
  GI50: 0.12 µM
  TGI: 0.294 µM
DU-145 prostate
  GI50: 0.251 µM
  TGI: 1.54 µM
EKVX NSCLC
  GI50: 0.186 µM
  TGI: 0.807 µM
HCC-2998 colon
  GI50: 0.315 µM
  TGI: 1.09 µM
HCT-116 colon
  GI50: 0.0804 µM
  TGI: 0.387 µM
HCT-15 colon
  GI50: 0.18 µM
  TGI: 0.715 µM
HL-60(TB) leukemia
  GI50: 0.134 µM
  TGI: 0.566 µM
HOP-62 NSCLC
  GI50: 0.242 µM
  TGI: 1.37 µM
HOP-92 NSCLC
  GI50: 0.0503 µM
  TGI: 0.229 µM
HS 578T breast
  GI50: 0.0779 µM
  TGI: 0.452 µM
HT29 colon
  GI50: 0.198 µM
  TGI: 0.954 µM
IGROV1 ovarian
  GI50: 0.123 µM
  TGI: 0.639 µM
K-562 leukemia
  GI50: 0.00989 µM
  TGI: 0.54 µM
KM12 colon
  GI50: 0.005 µM
  TGI: 1.2 µM
LOX IMVI melanoma
  GI50: 0.0973 µM
  TGI: 0.338 µM
M14 melanoma
  GI50: 0.125 µM
  TGI: 0.408 µM
MALME-3M melanoma
  GI50: 0.181 µM
  TGI: 0.711 µM
MCF7 breast
  GI50: 0.139 µM
  TGI: 0.933 µM
MDA-MB-231 breast
  GI50: 0.0823 µM
  TGI: 0.333 µM
MDA-MB-435
  GI50: 0.142 µM
  TGI: 0.843 µM
MOLT-4 leukemia
  GI50: 0.0514 µM
  TGI: 1.51 µM
NCI-H226 lung
  GI50: 0.147 µM
  TGI: 0.98 µM
NCI-H460 lung
  GI50: 0.123 µM
  TGI: 0.621 µM
NCI-H522 lung
  GI50: 0.0998 µM
  TGI: 0.315 µM
NCI/ADR-RES ovarian
  GI50: 1.89 µM
  TGI: 50 µM
OVCAR-3 ovarian
  GI50: 0.232 µM
  TGI: 1.34 µM
OVCAR-4 ovarian
  GI50: 0.352 µM
  TGI: 2.03 µM
OVCAR-5 ovarian
  GI50: 0.234 µM
  TGI: 1.4 µM
OVCAR-8 ovarian
  GI50: 0.197 µM
  TGI: 0.83 µM
PC-3 prostate
  GI50: 0.254 µM
  TGI: 2.13 µM
RPMI-8226 leukemia
  GI50: 0.195 µM
  TGI: 0.719 µM
RXF 393 renal
  GI50: 0.145 µM
  TGI: 0.432 µM
SF-268 CNS
  GI50: 0.156 µM
  TGI: 0.737 µM
SF-295 CNS
  GI50: 0.708 µM
  TGI: 3.33 µM
SF-539 CNS
  GI50: 0.0414 µM
  TGI: 0.215 µM
SK-MEL-2 melanoma
  GI50: 0.0978 µM
  TGI: 0.273 µM
SK-MEL-28 melanoma
  GI50: 0.402 µM
  TGI: 1.3 µM
SK-MEL-5 melanoma
  GI50: 0.575 µM
  TGI: 1.24 µM
SK-OV-3 ovarian
  GI50: 0.426 µM
  TGI: 1.29 µM
SN12C renal
  GI50: 0.0888 µM
  TGI: 0.766 µM
SNB-19 CNS
  GI50: 0.289 µM
  TGI: 1.82 µM
SNB-75 CNS
  GI50: 0.0257 µM
  TGI: 0.126 µM
SR leukemia
  GI50: 0.0783 µM
  TGI: 0.76 µM
SW-620 colon
  GI50: 0.0831 µM
  TGI: 0.257 µM
T-47D breast
  GI50: 0.325 µM
  TGI: 1.58 µM
TK-10 renal
  GI50: 0.232 µM
  TGI: 0.729 µM
U251 CNS
  GI50: 0.265 µM
  TGI: 0.984 µM
UACC-257 melanoma
  GI50: 0.692 µM
  TGI: 2.13 µM
UACC-62 melanoma
  GI50: 0.284 µM
  TGI: 0.832 µM
UO-31 renal
  GI50: 0.777 µM
  TGI: 1.99 µM

## Cc1ccc2c(n1)C(=O)C(Cl)=C(Nc1cccc(C(C)C)c1)C2=O
786-0 renal
  GI50: 2.18 µM
  TGI: 5.44 µM
A498 renal
  GI50: 6.56 µM
  TGI: 19.9 µM
A549 NSCLC
  GI50: 3.66 µM
  TGI: 14 µM
ACHN renal
  GI50: 1.69 µM
  TGI: 3.12 µM
BT-549 breast
  GI50: 2.45 µM
  TGI: 10.8 µM
CAKI-1 renal
  GI50: 1.88 µM
  TGI: 6.22 µM
CCRF-CEM leukemia
  GI50: 2.36 µM
  TGI: 19.9 µM
COLO 205 colon
  GI50: 3.33 µM
  TGI: 12.1 µM
DU-145 prostate
  GI50: 1.86 µM
  TGI: 3.82 µM
EKVX NSCLC
  GI50: 1.59 µM
  TGI: 3.24 µM
HCC-2998 colon
  GI50: 3.95 µM
  TGI: 13.7 µM
HCT-116 colon
  GI50: 1.52 µM
  TGI: 3.55 µM
HCT-15 colon
  GI50: 1.43 µM
  TGI: 3.36 µM
HL-60(TB) leukemia
  GI50: 1.73 µM
  TGI: 6.41 µM
HOP-62 NSCLC
  GI50: 2.7 µM
  TGI: 10.8 µM
HOP-92 NSCLC
  GI50: 1.76 µM
  TGI: 3.58 µM
HS 578T breast
  GI50: 2.29 µM
  TGI: 6.16 µM
HT29 colon
  GI50: 3.84 µM
  TGI: 31.4 µM
IGROV1 ovarian
  GI50: 1.56 µM
  TGI: 3.1 µM
K-562 leukemia
  GI50: 2.47 µM
  TGI: > 100 µM
KM12 colon
  GI50: 4.94 µM
  TGI: 28.6 µM
LOX IMVI melanoma
  GI50: 0.698 µM
  TGI: 2.54 µM
M14 melanoma
  GI50: 2.94 µM
  TGI: 10.1 µM
MALME-3M melanoma
  GI50: 1.65 µM
  TGI: 3.18 µM
MDA-MB-231 breast
  GI50: 1.37 µM
  TGI: 3.01 µM
MDA-MB-435
  GI50: 1.71 µM
  TGI: 3.16 µM
MOLT-4 leukemia
  GI50: 2.27 µM
  TGI: > 100 µM
NCI-H226 lung
  GI50: 1.48 µM
  TGI: 3.59 µM
NCI-H23 lung
  GI50: 1.58 µM
  TGI: 4.55 µM
NCI-H460 lung
  GI50: 3.42 µM
  TGI: 13.5 µM
NCI-H522 lung
  GI50: 2.25 µM
  TGI: 5.6 µM
NCI/ADR-RES ovarian
  GI50: 2.49 µM
  TGI: 9.13 µM
OVCAR-3 ovarian
  GI50: 0.617 µM
  TGI: 2.91 µM
OVCAR-4 ovarian
  GI50: 1.35 µM
  TGI: 2.64 µM
OVCAR-5 ovarian
  GI50: 2.17 µM
  TGI: 4.55 µM
OVCAR-8 ovarian
  GI50: 2.53 µM
  TGI: 8.97 µM
PC-3 prostate
  GI50: 2.17 µM
  TGI: 16.3 µM
RPMI-8226 leukemia
  GI50: 1.5 µM
  TGI: 5.18 µM
RXF 393 renal
  GI50: 1.29 µM
  TGI: 2.56 µM
SF-268 CNS
  GI50: 3.17 µM
  TGI: 34.6 µM
SF-295 CNS
  GI50: 3.5 µM
  TGI: 11.5 µM
SF-539 CNS
  GI50: 1.71 µM
  TGI: 3.15 µM
SK-MEL-2 melanoma
  GI50: 3.72 µM
  TGI: 12.8 µM
SK-MEL-28 melanoma
  GI50: 2.4 µM
  TGI: 5.58 µM
SK-MEL-5 melanoma
  GI50: 1.67 µM
  TGI: 3.06 µM
SK-OV-3 ovarian
  GI50: 13.2 µM
  TGI: 26.7 µM
SN12C renal
  GI50: 1.76 µM
  TGI: 4.54 µM
SNB-19 CNS
  GI50: 3.23 µM
  TGI: 13.6 µM
SNB-75 CNS
  GI50: 1.4 µM
  TGI: 3.19 µM
SR leukemia
  GI50: 1.63 µM
  TGI: > 100 µM
SW-620 colon
  GI50: 1.94 µM
  TGI: 4.03 µM
T-47D breast
  GI50: 1.61 µM
  TGI: 4.15 µM
TK-10 renal
  GI50: 4.67 µM
  TGI: 13.8 µM
U251 CNS
  GI50: 2.94 µM
  TGI: 11.1 µM
UACC-257 melanoma
  GI50: 1.59 µM
  TGI: 3.07 µM
UACC-62 melanoma
  GI50: 2.05 µM
  TGI: 4.64 µM
UO-31 renal
  GI50: 1.49 µM
  TGI: 2.83 µM
